Reference: ChEMBL document CHEMBL1152860, “Synthesis and antiproliferative activity of 3-amino-N-phenyl-1H-indazole-1-carboxamides” (2009)

Key:
Format in all cases: functional
[1] = tested on: ACHN; experiment: Growth inhibition of human ACHN cells after 48 hrs by SRB assay
[2] = tested on: SK-OV-3; experiment: Growth inhibition of human SKOV3 cells after 48 hrs by SRB assay; conditions: SK-OV-3, 48 h
[3] = tested on: OVCAR-8; experiment: Growth inhibition of human OVCAR8 cells after 48 hrs by SRB assay; conditions: OVCAR-8, 48 h
[4] = tested on: SR; experiment: Growth inhibition of human SR cells after 48 hrs by SRB assay
[5] = tested on: NCI-H226; experiment: Growth inhibition of human NCI-H226 cells after 48 hrs by SRB assay; conditions: NCI-H226, 48 h
[6] = tested on: SF-268; experiment: Growth inhibition of human SF268 cells after 48 hrs by SRB assay; conditions: SF-268, 48 h
[7] = tested on: LOX IMVI; experiment: Growth inhibition of human LOXIMVI cells after 48 hrs by SRB assay
[8] = tested on: HCT-15; experiment: Growth inhibition of human HCT15 cells after 48 hrs by SRB assay; conditions: HCT-15, 48 h
[9] = tested on: MCF7; experiment: Growth inhibition of human MCF7 cells after 48 hrs by SRB assay; conditions: MCF7, 48 h
[10] = tested on: HOP-92; experiment: Growth inhibition of human HOP92 cells after 48 hrs by SRB assay; conditions: HOP-92, 48 h
[11] = tested on: SK-MEL-28; experiment: Growth inhibition of human SK-MEL-28 cells after 48 hrs by SRB assay; conditions: SK-MEL-28, 48 h
[12] = tested on: MDA-MB-435; experiment: Growth inhibition of human MDA-MB-435 cells after 48 hrs by SRB assay; conditions: MDA-MB-435, 48 h
[13] = tested on: SF-539; experiment: Growth inhibition of human SF539 cells after 48 hrs by SRB assay; conditions: SF-539, 48 h
[14] = tested on: RXF 393; experiment: Growth inhibition of human […] cells after 48 hrs by SRB assay; conditions: RXF 393, 48 h
[15] = tested on: NCI-H23; experiment: Growth inhibition of human NCI-H23 cells after 48 hrs by SRB assay; conditions: NCI-H23, 48 h
[16] = tested on: SK-MEL-5; experiment: Growth inhibition of human SK-MEL-5 cells after 48 hrs by SRB assay; conditions: SK-MEL-5, 48 h
[17] = tested on: RPMI-8226; experiment: Growth inhibition of human RPMI8226 cells after 48 hrs by SRB assay; conditions: RPMI-8226, 48 h
[18] = tested on: NCI-H460; experiment: Growth inhibition of human NCI-H460 cells after 48 hrs by SRB assay; conditions: NCI-H460, 48 h
[19] = tested on: MOLT-4; experiment: Growth inhibition of human MOLT4 cells after 48 hrs by SRB assay; conditions: MOLT-4, 48 h
[20] = tested on: A549; experiment: Growth inhibition of human A549 cells after 48 hrs by SRB assay; conditions: A549, 48 h
[21] = tested on: NCI-H322M; experiment: Growth inhibition of human NCI-H322M cells after 48 hrs by SRB assay
[22] = tested on: NCI/ADR-RES; experiment: Growth inhibition of human NCI/ADR-RES cells after 48 hrs by SRB assay
[23] = tested on: UACC-257; experiment: Growth inhibition of human UACC257 cells after 48 hrs by SRB assay; conditions: UACC-257, 48 h
[24] = tested on: UO-31; experiment: Growth inhibition of human UO31 cells after 48 hrs by SRB assay; conditions: UO-31, 48 h
[25] = tested on: IGROV-1; experiment: Growth inhibition of human IGROV1 cells after 48 hrs by SRB assay; conditions: IGROV-1, 48 h
[26] = tested on: SF-295; experiment: Growth inhibition of human SF295 cells after 48 hrs by SRB assay; conditions: SF-295, 48 h
[27] = tested on: UACC-62; experiment: Growth inhibition of human UACC62 cells after 48 hrs by SRB assay; conditions: UACC-62, 48 h
[28] = tested on: 786-0; experiment: Growth inhibition of human 786-0 cells after 48 hrs by SRB assay; conditions: 786-0, 48 h
[29] = tested on: U-251; experiment: Growth inhibition of human U251 cells after 48 hrs by SRB assay; conditions: U-251, 48 h
[30] = tested on: HCT-116; experiment: Growth inhibition of human HCT116 cells after 48 hrs by SRB assay; conditions: HCT-116, 48 h
[31] = tested on: SW-620; experiment: Growth inhibition of human SW620 cells after 48 hrs by SRB assay; conditions: SW-620, 48 h
[32] = tested on: COLO 205; experiment: Growth inhibition of human COLO205 cells after 48 hrs by SRB assay; conditions: COLO 205, 48 h
[33] = tested on: MDA-MB-231; experiment: Growth inhibition of human MDA-MB-231 cells after 48 hrs by SRB assay; conditions: MDA-MB-231, 48 h
[34] = tested on: SK-MEL-2; experiment: Growth inhibition of human SK-MEL-2 cells after 48 hrs by SRB assay; conditions: SK-MEL-2, 48 h
[35] = tested on: HL-60(TB); experiment: Growth inhibition of human HL-60(TB) cells after 48 hrs by SRB assay; conditions: HL-60, 48 h
[36] = tested on: K562; experiment: Growth inhibition of human K562 cells after 48 hrs by SRB assay; conditions: K562, 48 h
[37] = tested on: KM12; experiment: Growth inhibition of human KM12 cells after 48 hrs by SRB assay; conditions: KM12, 48 h
[38] = tested on: HCC 2998; experiment: Growth inhibition of human HCC2998 cells after 48 hrs by SRB assay; conditions: HCC 2998, 48 h
[39] = Growth inhibition of human Hs 578T cells after 48 hrs by SRB assay
[40] = tested on: BT-549; experiment: Growth inhibition of human BT549 cells after 48 hrs by SRB assay; conditions: BT-549, 48 h
[41] = tested on: CAKI-1; experiment: Growth inhibition of human Caki1 cells after 48 hrs by SRB assay; conditions: CAKI-1, 48 h
[42] = tested on: SNB-19; experiment: Growth inhibition of human SNB19 cells after 48 hrs by SRB assay; conditions: SNB-19, 48 h
[43] = tested on: Malme-3M; experiment: Growth inhibition of human MALME-3M cells after 48 hrs by SRB assay
[44] = tested on: OVCAR-3; experiment: Growth inhibition of human OVCAR-3 cells after 48 hrs by SRB assay; conditions: OVCAR-3, 48 h
[45] = tested on: OVCAR-4; experiment: Growth inhibition of human OVCAR4 cells after 48 hrs by SRB assay; conditions: OVCAR-4, 48 h
[46] = tested on: PC-3; experiment: Growth inhibition of human PC3 cells after 48 hrs by SRB assay; conditions: PC-3, 48 h
[47] = tested on: A498; experiment: Growth inhibition of human A498 cells after 48 hrs by SRB assay; conditions: A498, 48 h
[48] = tested on: HOP-62; experiment: Growth inhibition of human HOP62 cells after 48 hrs by SRB assay; conditions: HOP-62, 48 h
[49] = tested on: T47D; experiment: Growth inhibition of human T47D cells after 48 hrs by SRB assay
[50] = tested on: OVCAR-5; experiment: Growth inhibition of human OVCAR5 cells after 48 hrs by SRB assay; conditions: OVCAR-5, 48 h
[51] = tested on: M14; experiment: Growth inhibition of human M14 cells after 48 hrs by SRB assay; conditions: M14, 48 h
[52] = tested on: TK-10; experiment: Growth inhibition of human TK10 cells after 48 hrs by SRB assay; conditions: TK-10, 48 h
[53] = tested on: DU-145; experiment: Growth inhibition of human DU145 cells after 48 hrs by SRB assay; conditions: DU-145, 48 h
[54] = tested on: SN12C; experiment: Growth inhibition of human SN12C cells after 48 hrs by SRB assay
[55] = tested on: HT-29; experiment: Growth inhibition of human HT-29 cells after 48 hrs by SRB assay; conditions: HT-29, 48 h
[56] = tested on: NCI-H522; experiment: Growth inhibition of human NCI-H522 cells after 48 hrs by SRB assay; conditions: NCI-H522, 48 h
[57] = tested on: EKVX; experiment: Growth inhibition of human EKVX cells after 48 hrs by SRB assay
[58] = tested on: SNB-75; experiment: Growth inhibition of human SNB75 cells after 48 hrs by SRB assay; conditions: SNB-75, 48 h

For `Nc1nn(C(=O)Nc2c(F)cccc2F)c2ccccc12`, the GI50 [1] was 50.1 µM, the GI50 [2] was less than 100 µM and the GI50 [3] was 44.2 µM. The GI50 [4] was 12.9 µM, the GI50 [5] was 98.5 µM and the GI50 [6] was 36.2 µM. It also gave a GI50 [7] of 49.3 µM, a GI50 [8] of 40.9 µM and a GI50 [9] of 60 µM. For the same molecule, the GI50 [10] was 17.3 µM, the GI50 [11] was 56.3 µM and the GI50 [12] was 54.9 µM. The GI50 [13] was 31.4 µM, the GI50 [14] was 20.2 µM and the GI50 [15] was 95.6 µM. It also gave a GI50 [16] of 39.7 µM, a GI50 [17] of 16.1 µM and a GI50 [18] of 33.4 µM. For the same molecule, the GI50 [19] was 32.7 µM, the GI50 [20] was 48.5 µM and the GI50 [21] was less than 100 µM. The GI50 [22] was 56.5 µM, the GI50 [23] was 71.7 µM and the GI50 [24] was 18.6 µM. It also gave a GI50 [25] of 7.7 µM, a GI50 [26] of 54.8 µM and a GI50 [27] of 43.9 µM. It also gave a GI50 [28] of less than 100 µM, a GI50 [29] of 96.1 µM and a GI50 [30] of 34.8 µM. The GI50 [31] was 38.3 µM, the GI50 [32] was less than 100 µM and the GI50 [33] was 98.8 µM. The GI50 [34] was less than 100 µM, the GI50 [35] was 33.2 µM and the GI50 [36] was less than 100 µM. For the same molecule, the GI50 [37] was 86.2 µM, the GI50 [38] was 95.8 µM and the GI50 [39] was 73 µM. For the same molecule, the GI50 [40] was 28.8 µM, the GI50 [41] was 45.3 µM and the GI50 [42] was less than 100 µM. For the same molecule, the GI50 [43] was less than 100 µM, the GI50 [44] was 65.7 µM and the GI50 [45] was 57.8 µM. For the same molecule, the GI50 [46] was less than 100 µM, the GI50 [47] was 31.4 µM and the GI50 [48] was 51 µM. The GI50 [49] was 68.7 µM, the GI50 [50] was less than 100 µM and the GI50 [51] was 74.7 µM. It also gave a GI50 [52] of less than 100 µM, a GI50 [53] of 62.3 µM and a GI50 [54] of less than 100 µM. It also gave a GI50 [55] of 74.6 µM, a GI50 [56] of 55.1 µM and a GI50 [57] of 84 µM.

Molecule `O=C(Nc1ccc(Cc2ccccc2)cc1)Nc1nn(C(=O)Nc2ccc(Cc3ccccc3)cc2)c2ccccc12` has a GI50 [1] greater than 100 µM, a GI50 [2] greater than 100 µM and a GI50 [3] greater than 100 µM. It also gave a GI50 [4] of 16.3 µM, a GI50 [5] greater than 100 µM and a GI50 [6] of 75.6 µM. The GI50 [7] was 71 µM, the GI50 [8] was greater than 100 µM and the GI50 [9] was greater than 100 µM. For the same molecule, the GI50 [10] was 18 µM, the GI50 [11] was greater than 100 µM and the GI50 [12] was greater than 100 µM. The GI50 [13] was greater than 100 µM, the GI50 [14] was 30.4 µM and the GI50 [15] was greater than 100 µM. For the same molecule, the GI50 [16] was greater than 100 µM, the GI50 [17] was greater than 100 µM and the GI50 [18] was greater than 100 µM. It also gave a GI50 [19] of 63.2 µM, a GI50 [58] of 33.8 µM and a GI50 [20] greater than 100 µM. The GI50 [21] was greater than 100 µM, the GI50 [22] was greater than 100 µM and the GI50 [23] was greater than 100 µM. For the same molecule, the GI50 [24] was greater than 100 µM, the GI50 [25] was greater than 100 µM and the GI50 [26] was greater than 100 µM. The GI50 [27] was 41.6 µM, the GI50 [28] was greater than 100 µM and the GI50 [29] was 70.2 µM. The GI50 [30] was greater than 100 µM, the GI50 [31] was greater than 100 µM and the GI50 [32] was greater than 100 µM. For the same molecule, the GI50 [33] was 47.1 µM, the GI50 [34] was greater than 100 µM and the GI50 [35] was greater than 100 µM. It also gave a GI50 [36] of 40.5 µM, a GI50 [37] greater than 100 µM and a GI50 [38] greater than 100 µM. The GI50 [39] was 74.2 µM, the GI50 [40] was greater than 100 µM and the GI50 [41] was greater than 100 µM. For the same molecule, the GI50 [42] was greater than 100 µM, the GI50 [43] was greater than 100 µM and the GI50 [44] was greater than 100 µM. The GI50 [45] was greater than 100 µM, the GI50 [46] was greater than 100 µM and the GI50 [47] was 82.4 µM. It also gave a GI50 [48] of 59.7 µM, a GI50 [49] greater than 100 µM and a GI50 [50] greater than 100 µM. It also gave a GI50 [51] greater than 100 µM, a GI50 [52] greater than 100 µM and a GI50 [53] of 80 µM. The GI50 [54] was greater than 100 µM, the GI50 [55] was greater than 100 µM and the GI50 [56] was greater than 100 µM. The GI50 [57] was greater than 100 µM.
